{
  "source": "patent US6552014B2",
  "about": "“Methods of inhibiting platelet activation with selective serotonin reuptake inhibitors” (HeartDrug Research, L.L.C., priority 1999, dated 2003)",
  "key": {"platelets": {"tested_on": "platelets", "assay": "Platelet aggregation in whole blood (ADP or collagen)", "type": "cell-based, human", "description": "(§1) Trisodium citrate (3.8%) and whole blood is immediately mixed in a 1:9 ratio, and then centrifuged at 1200 g for 2.5 minutes, to obtain platelet-rich plasma (PRP), which is kept at room temperature for use within 1 hour for platelet aggregation studies. Platelet count is determined in each PRP sample with a Coulter Counter ZM (Coulter Co., Hialeah, Fla.). Platelet numbers are adjusted to 3.50×10^8/ml for aggregation with homologous platelet-poor plasma. PRP and whole blood aggregation tests are performed simultaneously. Whole blood is diluted 1.1 with the 0.5 ml PBS, and then swirled gently to mix . The cuvette with the stirring bar is placed in the incubation well and allowed to warm to 37° C. for 5 minutes. Then the sample are transferred to the assay well. An electrode is placed in the sample cuvette. Platelet aggregation is stimulated with 5 μM ADP, 1 μg/ml collagen, and 0.75 mM arachidonic acid. All agonists are obtained from Chronolog Corporation (Hawertown, Pa.). […] Platelet aggregability are expressed as the percentage of light transmittance change from baseline using platelet-poor plasma as a reference at the end of recording time for plasma samples, or as a change in electrical impedance for whole blood samples. Aggregation curves are recorded for 4 minutes and analyzed according to internationally established standards using Aggrolinkg® software."}, "[1]": {"conditions": "single doses in volunteers; cited from earlier work"}, "[2]": {"conditions": "in vivo; cited from earlier work"}, "P-selectin": {"tested_on": "P-selectin", "assay": "Flow cytometry of platelet antigen expression, platelet rich plasma", "type": "cell-based, human", "conditions": "PRP", "text": "For ex vivo assessment of the SSRIs effect on a PAM, a level of a PAM can be assessed by flow cytometry by first obtaining a sample that comprises platelets and then contacting the sample with a platelet activation agonist, such as phorbol myristate acetate (PMA), ADP (adenosine diphosphate), thrombin, collagen, and/or TRAP (thrombin receptor activating peptide), under conditions suitable for activation of platelets in the sample. The sample is in contact with the agonist preferably for a period of time effective to maximally activate the platelets. […] Then the formation of the complex in the sample is determined (detected or measured). […] The blood-ACD mixture was centrifuged at 1000 r.p.m. for 10 minutes at room temperature. […] The PRP was then centrifuged at 3000 r.p.m. for 10 minutes. […] All cells were then divided into ten plastic capped tubes. Nine portions of washed platelets were incubated with 5 μfluorescein isothiocyanate (FITC)-conjugated antibodies in the dark at +4 °C for 30 minutes, and one part remained unstained and served as a negative control. […] The instrument was calibrated daily with fluorescence beads (CaliBRITE; Becton Dickinson) and measured FITC-conjugated fluorescence intensity. All parameters were obtained using four decade logarithmic amplification. The data was collected and stored in list mode, and then analyzed using CELLQuest® (version 1.2.2) software. Procedures are described in detail in (Gurbel, P. […] Serebruany, V. […] The levels of various PAMs were assess from samples of human volunteers."}, "human platelets": {"tested_on": "human platelets", "assay": "Platelet inhibition / platelet activation state, overall statement", "type": "cell-based", "conditions": "platelet rich plasma and whole blood", "description": "as §1, with “.” for “. The cuvette with the stirring bar is placed in the incubation well and allowed to warm to 37° C. for 5 minutes. Then the sample are transferred to the assay well. An electrode is placed in the sample cuvette. Platelet aggregation is stimulated with 5 μM ADP, 1 μg/ml collagen, and 0.75 mM arachidonic acid. All agonists are obtained from Chronolog Corporation (Hawertown, Pa.).”\nVenous blood (8 ml) was collected in a plastic tube containing 2 ml of acid-citrate-dextrose (ACD) (7.3 g citric acid, 22.0 g sodium citrate×2H2O and 24.5 glucose in 1000 ml distilled water) and mixed well. […] Samples were stored in the refrigerator at +4 °C, and analyzed on a Becton Dickinson FACScan flow cytometer with laser output of 15 mw, excitation at 488 nm, and emission detection at 530±30 nm. […]"}, "GP IIb": {"tested_on": "GP IIb", "assay": "Flow cytometry of platelet antigen expression, platelet rich plasma", "type": "cell-based, human", "conditions": "PRP, desmethylsertraline 64.2 ng/ml"}, "CPIa-IIa": {"tested_on": "CPIa-IIa", "assay": "Flow cytometry of platelet antigen expression, platelet rich plasma", "type": "cell-based, human", "conditions": "PRP; healthy volunteers; desmethylsertraline 64.2 ng/ml"}, "PECAM-1": {"tested_on": "PECAM-1", "assay": "Flow cytometry of platelet antigen expression, platelet rich plasma", "type": "cell-based, human", "conditions": "PRP, desmethylsertraline 64.2 ng/ml"}, "[3]": {"conditions": "healthy volunteers, desmethylsertraline 31.1 ng/ml"}, "[4]": {"conditions": "healthy volunteers, desmethylsertraline 64.2 ng/ml"}, "[5]": {"conditions": "healthy volunteers, desmethylsertraline 143 ng/ml"}, "[6]": {"conditions": "post-angioplasty patient on aspirin, desmethylsertraline 31.1 ng/ml"}, "[7]": {"conditions": "post-angioplasty patient on aspirin, desmethylsertraline 64.2 ng/ml"}, "[8]": {"conditions": "post-angioplasty patient on aspirin, desmethylsertraline 143 ng/ml"}, "[9]": {"conditions": "post-angioplasty patient on aspirin"}},
  "data": [
    {"compound": "CN[C@H]1CC[C@@H](c2ccc(Cl)c(Cl)c2)c2ccccc21", "note": "[sertraline]", "values": [
      {"measurement": "ADP-, and collagen-induced platelet aggregation in whole blood (in vitro), in words", "setting": "platelets; healthy controls and patients with coronary artery disease, including those on aspirin", "result": "Dose-dependent inhibition"},
      {"measurement": "percent of platelet aggregation (FIGS. 2 and 3), in words", "setting": "platelets; whole blood, healthy volunteer, induced with ADP or collagen, sertraline 18.1, 44.7 or 85.3 ng/ml", "result": "decreases with increasing amounts of sertraline"},
      {"measurement": "dose at which sedative potential is evident", "setting": "[1]", "result": "≥ 200", "unit": "mg/daily"},
      {"measurement": "half life", "setting": "[2]", "result": "25 to 32", "unit": "h"}
    ]},
    {"compound": "N[C@H]1CC[C@@H](c2ccc(Cl)c(Cl)c2)c2ccccc21", "note": "[Desmethyl sertraline, N-desmethylsertraline]", "values": [
      {"measurement": "P-selectin (mean) log fluorescence intensity", "setting": "P-selectin; [3]", "result": 11.8},
      {"measurement": "P-selectin (peak) log fluorescence intensity", "setting": "P-selectin; [3]", "result": 459},
      {"measurement": "P-selectin (mean) log fluorescence intensity", "setting": "P-selectin; [4]", "result": 10.5},
      {"measurement": "P-selectin (peak) log fluorescence intensity", "setting": "P-selectin; [4]", "result": 494},
      {"measurement": "P-selectin (mean) log fluorescence intensity", "setting": "P-selectin; [5]", "result": 13.5},
      {"measurement": "P-selectin (peak) log fluorescence intensity", "setting": "P-selectin; [5]", "result": 398},
      {"measurement": "P-selectin (mean) log fluorescence intensity", "setting": "P-selectin; [6]", "result": 15},
      {"measurement": "P-selectin (peak) log fluorescence intensity", "setting": "P-selectin; [6]", "result": 322},
      {"measurement": "P-selectin (mean) log fluorescence intensity", "setting": "P-selectin; [7]", "result": 11},
      {"measurement": "P-selectin (peak) log fluorescence intensity", "setting": "P-selectin; [7]", "result": 537},
      {"measurement": "P-selectin (mean) log fluorescence intensity", "setting": "P-selectin; [8]", "result": 13.4},
      {"measurement": "P-selectin (peak) log fluorescence intensity", "setting": "P-selectin; [8]", "result": 378},
      {"measurement": "platelet inhibition / platelet activation state, in words", "setting": "human platelets", "result": "potent dose-dependent effects inhibiting human platelets"},
      {"measurement": "platelet inhibition / platelet activation state, in words", "setting": "human platelets; listed as NDMS", "result": "significantly reduces the platelet activation state"},
      {"measurement": "GP IIb (mean) log fluorescence intensity", "setting": "GP IIb; healthy volunteers", "result": 37},
      {"measurement": "GP IIb (peak) log fluorescence intensity", "setting": "GP IIb; [9]", "result": 20},
      {"measurement": "CPIa-IIa (mean) log fluorescence intensity", "setting": "CPIa-IIa", "result": 42},
      {"measurement": "CPIa-IIa (peak) log fluorescence intensity", "setting": "CPIa-IIa", "result": 40},
      {"measurement": "PECAM-1 (peak) log fluorescence intensity", "setting": "PECAM-1; healthy volunteers", "result": 91},
      {"measurement": "PECAM-1 (mean) log fluorescence intensity", "setting": "PECAM-1; [9]", "result": 105},
      {"measurement": "PECAM-1 (peak) log fluorescence intensity", "setting": "PECAM-1; [9]", "result": 84}
    ]}
  ]
}
